This is an account of results in PubChem BioAssay (NCI).

Molecules are shown by their SMILES.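 Each compound was tested at five concentrations against cells in 96-well plates for 48 hours. GI50: concentration for 50% inhibition of growth. Definition used: TGI = concentration required for complete inhibition of growth.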 Bounds are passed on as bounds.

Some test systems named below: HCT-15 colon; HOP-92 NSCLC; MDA-MB-231 breast; LOX IMVI melanoma; NCI-H522 lung; UACC-62 melanoma; T-47D breast; NCI-H226 lung; SW-620 colon; COLO 205 colon.
Test in all cases: DTP human tumour cell line panel, 48 h

On to `CCS(=O)(=O)c1ccc(OC)c(Nc2ncc(-c3ccccc3Cl)o2)c1`, for which the GI50 – broadly, the concentration that inhibits growth by half – with HCT-15 colon was 9.01 µM; with HOP-92 NSCLC, 3.29 µM; with MDA-MB-231 breast, 11.4 µM; in the test with LOX IMVI melanoma, 9.15 µM; with NCI-H522 lung it was 8.95 µM; in the test on UACC-62 melanoma, 11.3 µM. Besides, the GI50 was 8.57 µM in the test with T-47D breast, 7.72 µM with NCI-H226 lung, 8.38 µM with SW-620 colon and 6.67 µM in the test with COLO 205 colon. The TGI – broadly, the concentration giving total growth inhibition – in the test with HCT-15 colon is greater than 25 µM; with HOP-92 NSCLC, 21.1 µM; in the test with MDA-MB-231 breast, greater than 25 µM; in the test with LOX IMVI melanoma, greater than 25 µM; in the test on NCI-H522 lung it was greater than 25 µM; in the test with UACC-62 melanoma it was greater than 25 µM. The TGI in the test on T-47D breast was greater than 25 µM; in the test on NCI-H226 lung it was greater than 25 µM; in the test on SW-620 colon, greater than 25 µM; in the test with COLO 205 colon it was 15.4 µM.

`Nc1ccccc1C#C/C=C\C#Cc1c(F)c(F)c(F)c(F)c1F`: the GI50 is 15.1 µM in the test on HCT-15 colon; 19.5 µM with HOP-92 NSCLC; 2.76 µM with MDA-MB-231 breast; 2.68 µM in the test on LOX IMVI melanoma; 11.9 µM in the test on NCI-H522 lung; 12.5 µM with UACC-62 melanoma. Besides, the GI50 was 23 µM in the test with T-47D breast, 11.3 µM in the test on NCI-H226 lung, 18.7 µM in the test on SW-620 colon and 18.9 µM with COLO 205 colon. The concentration for total growth inhibition (TGI) with HCT-15 colon was determined as 30 µM; in the test on HOP-92 NSCLC it was 41.4 µM; in the test on MDA-MB-231 breast, 16.7 µM; in the test with LOX IMVI melanoma it was 14.6 µM; with NCI-H522 lung, 31.3 µM; in the test on UACC-62 melanoma, 26 µM. Besides, the total growth inhibition concentration (TGI) in the test with T-47D breast is 61.6 µM; in the test on NCI-H226 lung, 26.7 µM; in the test with SW-620 colon, 42 µM; with COLO 205 colon, 37.4 µM.

For the compound `O=C(NCc1ccco1)c1cccc(NC2=C(Cl)C(=O)N(Cc3ccccc3)C2=O)c1`, the GI50 is 4.16 µM in the test with HCT-15 colon; 7.91 µM in the test with HOP-92 NSCLC; 17.3 µM with MDA-MB-231 breast; 3.72 µM in the test with LOX IMVI melanoma; 2.84 µM in the test on NCI-H522 lung; 12.6 µM with UACC-62 melanoma. Besides, the GI50 with T-47D breast is 23.1 µM; with NCI-H226 lung it was 12.7 µM; with SW-620 colon, 11.5 µM; with COLO 205 colon, 16.2 µM. The TGI is 24 µM in the test on HCT-15 colon; 33 µM in the test with HOP-92 NSCLC; greater than 100 µM in the test on MDA-MB-231 breast; greater than 100 µM in the test on LOX IMVI melanoma; 20.8 µM in the test on NCI-H522 lung; 33.3 µM with UACC-62 melanoma. Besides, the TGI in the test with T-47D breast was greater than 100 µM; in the test on NCI-H226 lung, 62.7 µM; with SW-620 colon, greater than 100 µM; in the test on COLO 205 colon, 49.9 µM.

On to `COc1cccc2c1C(=O)OC2c1cccc2ccccc12` (stereo not given), for which the TGI in the test on HCT-15 colon, in the test on HOP-92 NSCLC, in the test with MDA-MB-231 breast, in the test on LOX IMVI melanoma, with NCI-H522 lung and with UACC-62 melanoma was greater than 100 µM throughout. Besides, the TGI in the test with T-47D breast, with NCI-H226 lung, in the test on SW-620 colon and in the test on COLO 205 colon was greater than 100 µM throughout.
